Source: PubChem BioAssay AID1963838 (Molecular Pharmacology Branch, DTP, NCI, 2024)

System: 855422-203-R-J1-PDC complex spheroid viability
Assay: Anticancer human tumor 855422-203-R-J1-PDC patient-derived bladder carcinoma cell line growth inhibition [POLQ]
Settings: for IC50: curve of first compound; for viability, T/C: stronger effect = lower value
In short: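 Patient-derived tumour cells were co-cultured with HUVEC and mesenchymal stem cells as multicellular spheroids at 37 °C. They were treated with POLQ inhibitors (novobiocin, ART-558, RP6685) alone or combined with other agents. Top concentrations were at or near clinical Cmax (otherwise 10 microM; SN-38 at 1 microM), decreasing in half-log steps.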

[1] = second compound 0.0316 µM, first compound 0.0316 µM
[2] = second compound 0.0316 µM, first compound 0.1 µM
[3] = second compound 0.0316 µM, first compound 0.316 µM
[4] = second compound 0.0316 µM, first compound 1 µM
[5] = second compound 0.0316 µM, first compound 3.16 µM
[6] = second compound 0.0316 µM, first compound 10 µM
[7] = second compound 0.1 µM, first compound 0.0316 µM
[8] = second compound 0.1 µM, first compound 0.1 µM
[9] = second compound 0.1 µM, first compound 0.316 µM
[10] = second compound 0.1 µM, first compound 1 µM
[11] = second compound 0.1 µM, first compound 3.16 µM
[12] = second compound 0.1 µM, first compound 10 µM
[13] = second compound 0.316 µM, first compound 0.0316 µM
[14] = second compound 0.316 µM, first compound 0.1 µM
[15] = second compound 0.316 µM, first compound 0.316 µM
[16] = second compound 0.316 µM, first compound 1 µM
[17] = second compound 0.316 µM, first compound 3.16 µM
[18] = second compound 0.316 µM, first compound 10 µM
[19] = second compound 1 µM, first compound 0.0316 µM
[20] = second compound 1 µM, first compound 0.1 µM
[21] = second compound 1 µM, first compound 0.316 µM
[22] = second compound 1 µM, first compound 1 µM
[23] = second compound 1 µM, first compound 3.16 µM
[24] = second compound 1 µM, first compound 10 µM
[25] = second compound 3.16 µM, first compound 0.0316 µM
[26] = second compound 3.16 µM, first compound 0.1 µM
[27] = second compound 3.16 µM, first compound 0.316 µM
[28] = second compound 3.16 µM, first compound 1 µM
[29] = second compound 3.16 µM, first compound 3.16 µM
[30] = second compound 3.16 µM, first compound 10 µM
[31] = second compound 10 µM, first compound 0.0316 µM
[32] = second compound 10 µM, first compound 0.1 µM
[33] = second compound 10 µM, first compound 0.316 µM
[34] = second compound 10 µM, first compound 1 µM
[35] = second compound 10 µM, first compound 3.16 µM
[36] = second compound 10 µM, first compound 10 µM
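Also: spheroids exposed to compounds for seven days before readout.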

## COc1cc(C2c3cc4c(cc3C(OC3OC5COC(C)OC5C(O)C3O)C3COC(=O)C23)OCO4)cc(OC)c1O (stereo unspecified) + Cc1cccc(N(C)C(=O)C2C(O)CCN2c2nc(C)cc(C(F)(F)F)c2C#N)c1
Second compound 0.0316 µM
  IC50: 229 nM
Second compound 0.1 µM
  IC50: 222 nM
Second compound 0.316 µM
  IC50: 205 nM
Second compound 1 µM
  IC50: 189 nM
Second compound 3.16 µM
  IC50: 180 nM
Second compound 10 µM
  IC50: 137 nM
[1]
  viability, T/C: 102%
[2]
  viability, T/C: 102%
[3]
  viability, T/C: 30.1%
[4]
  viability, T/C: 11.4%
[5]
  viability, T/C: 7.61%
[6]
  viability, T/C: 4.64%
[7]
  viability, T/C: 98.4%
[8]
  viability, T/C: 98.4%
[9]
  viability, T/C: 28.7%
[10]
  viability, T/C: 12.5%
[11]
  viability, T/C: 6.62%
[12]
  viability, T/C: 4.51%
[13]
  viability, T/C: 111%
[14]
  viability, T/C: 89.8%
[15]
  viability, T/C: 25.9%
[16]
  viability, T/C: 11.4%
[17]
  viability, T/C: 8.46%
[18]
  viability, T/C: 4.61%
[19]
  viability, T/C: 113%
[20]
  viability, T/C: 80.2%
[21]
  viability, T/C: 24.8%
[22]
  viability, T/C: 11.8%
[23]
  viability, T/C: 6.9%
[24]
  viability, T/C: 5.16%
[25]
  viability, T/C: 97.7%
[26]
  viability, T/C: 77%
[27]
  viability, T/C: 23.5%
[28]
  viability, T/C: 12.4%
[29]
  viability, T/C: 6.67%
[30]
  viability, T/C: 4.34%
[31]
  viability, T/C: 97%
[32]
  viability, T/C: 60.9%
[33]
  viability, T/C: 20.7%
[34]
  viability, T/C: 13.5%
[35]
  viability, T/C: 6.34%
[36]
  viability, T/C: 4.46%

## Nc1ccn(C2OC(CO)C(O)C2(F)F)c(=O)n1 (stereo unspecified) + Cc1cccc(N(C)C(=O)C2C(O)CCN2c2nc(C)cc(C(F)(F)F)c2C#N)c1
Second compound 0.0316 µM
  IC50: 78.9 nM
Second compound 0.1 µM
  IC50: 101 nM
Second compound 0.316 µM
  IC50: 76.9 nM
Second compound 1 µM
  IC50: 85.7 nM
Second compound 3.16 µM
  IC50: 77.1 nM
Second compound 10 µM
  IC50: 69.8 nM
[1]
  viability, T/C: 84.7%
[2]
  viability, T/C: 41%
[3]
  viability, T/C: 12.6%
[4]
  viability, T/C: 12.4%
[5]
  viability, T/C: 8.52%
[6]
  viability, T/C: 7.11%
[7]
  viability, T/C: 86.4%
[8]
  viability, T/C: 50.5%
[9]
  viability, T/C: 13.6%
[10]
  viability, T/C: 9.98%
[11]
  viability, T/C: 8.34%
[12]
  viability, T/C: 6.1%
[13]
  viability, T/C: 81.7%
[14]
  viability, T/C: 40.7%
[15]
  viability, T/C: 11.9%
[16]
  viability, T/C: 10.9%
[17]
  viability, T/C: 8.07%
[18]
  viability, T/C: 5.67%
[19]
  viability, T/C: 83.7%
[20]
  viability, T/C: 44.8%
[21]
  viability, T/C: 12%
[22]
  viability, T/C: 11.7%
[23]
  viability, T/C: 8.68%
[24]
  viability, T/C: 6.87%
[25]
  viability, T/C: 86.5%
[26]
  viability, T/C: 39.4%
[27]
  viability, T/C: 14.8%
[28]
  viability, T/C: 10.2%
[29]
  viability, T/C: 10.4%
[30]
  viability, T/C: 6.57%
[31]
  viability, T/C: 84.5%
[32]
  viability, T/C: 34.4%
[33]
  viability, T/C: 13.3%
[34]
  viability, T/C: 12.7%
[35]
  viability, T/C: 8.82%
[36]
  viability, T/C: 8.17%

## O=c1[nH]cc(F)c(=O)[nH]1 + Cc1cccc(N(C)C(=O)C2C(O)CCN2c2nc(C)cc(C(F)(F)F)c2C#N)c1
Second compound 0.0316 µM
  IC50: 605 nM
Second compound 0.1 µM
  IC50: 389 nM
Second compound 0.316 µM
  IC50: 387 nM
Second compound 1 µM
  IC50: 496 nM
Second compound 3.16 µM
  IC50: 537 nM
Second compound 10 µM
  IC50: 554 nM
[1]
  viability, T/C: 133%
[2]
  viability, T/C: 96.3%
[3]
  viability, T/C: 67.1%
[4]
  viability, T/C: 36.8%
[5]
  viability, T/C: 27.6%
[6]
  viability, T/C: 25.7%
[7]
  viability, T/C: 109%
[8]
  viability, T/C: 128%
[9]
  viability, T/C: 54.8%
[10]
  viability, T/C: 33.2%
[11]
  viability, T/C: 26.3%
[12]
  viability, T/C: 24.2%
[13]
  viability, T/C: 115%
[14]
  viability, T/C: 118%
[15]
  viability, T/C: 54.6%
[16]
  viability, T/C: 34.5%
[17]
  viability, T/C: 27.4%
[18]
  viability, T/C: 23.1%
[19]
  viability, T/C: 112%
[20]
  viability, T/C: 107%
[21]
  viability, T/C: 61.1%
[22]
  viability, T/C: 33.7%
[23]
  viability, T/C: 26.6%
[24]
  viability, T/C: 24.1%
[25]
  viability, T/C: 109%
[26]
  viability, T/C: 99.5%
[27]
  viability, T/C: 62.6%
[28]
  viability, T/C: 35.2%
[29]
  viability, T/C: 29.1%
[30]
  viability, T/C: 27%
[31]
  viability, T/C: 109%
[32]
  viability, T/C: 114%
[33]
  viability, T/C: 65.2%
[34]
  viability, T/C: 40.1%
[35]
  viability, T/C: 32.6%
[36]
  viability, T/C: 26.6%
